Test results reported in ChEMBL document CHEMBL5244246, “Recent advances in chemistry and bioactivity of marine cyanobacteria Moorea species” (Eur J Med Chem, 2020).
In brackets after ≈: the same amount, converted by molar mass. Several values for one entry are separate records, joined by “and”; a condition that tells them apart may be missing. Equal values may be shown once.

Tests used:
L1210 [1] = assay: Cytotoxicity against mouse L1210 cells assessed as inhibition of cell growth; format: functional, cell-based
[2] = Toxicity in shrimp assessed as lethal dose; conditions: palaemon paucidens
[3] = tested on: Mycobacterium tuberculosis; assay: Antimycobacterial activity against Mycobacterium tuberculosis H37Rv assessed as inhibition of bacterial growth at 12.5 ug/ml relative to control; format: functional
MDA-MB-231 = assay: Cytotoxicity against human MDA-MB-231 cells assessed as cell growth inhibition; format: functional
A549 = assay: Cytotoxicity against human A549 cells assessed as cell growth inhibition; format: functional, cell-based
HT-29 = assay: Cytotoxicity against human HT-29 cells assessed as cell growth inhibition; format: functional
HeLa = assay: Cytotoxicity against human HeLa cells assessed as inhibition of cell growth incubated for 48 hrs by WST-8 colorimetric assay; format: functional, cell-based
NCI-H460 = assay: Cytotoxicity against human NCI-H460 cells; format: functional, cell-based
N2a = assay: Cytotoxicity against mouse Neuro2a cells assessed as inhibition of cell growth; format: functional, cell-based; conditions: Mus musculus, N2a
Homo sapiens = species: Homo sapiens; assay: Inhibition of Voltage-gated sodium channel (unknown origin) at 3 ug/ml incubated for 18 hrs by cell-based bioassay relative to control; conditions: dose 3.0 µg/ml
Nitzschia amabilis = assay: Growth inhibition of marine diatom assessed as inhibition rate at 10 ug/ml relative to control; format: functional
L1210 [4] = assay: Cytotoxicity against mouse L1210 cells assessed as inhibition of cell growth at 10 ug/mL relative to control; format: functional; conditions: for inhibition (INH): dose 10 µg/ml; for inhibition at 10 µg/mL: Mus musculus, L1210, dose 10 µg/ml
MCF7 = assay: Cytotoxicity against human MCF7 cells assessed as inhibition of cell growth; format: functional, cell-based
[5] = Toxicity in brine shrimp assessed as lethal dose; conditions: artemia salina; read-out: LD50 (the source's name)
[6] = target: Protein kinase C delta type (Homo sapiens, UniProt Q05655); assay: Inhibition of [3H]-PDBu binding to PKCdelta C1B domain (unknown origin) by competitive binding assay
Protein kinase C delta type, sequence (Q05655 whole entry, the tested form may be a part): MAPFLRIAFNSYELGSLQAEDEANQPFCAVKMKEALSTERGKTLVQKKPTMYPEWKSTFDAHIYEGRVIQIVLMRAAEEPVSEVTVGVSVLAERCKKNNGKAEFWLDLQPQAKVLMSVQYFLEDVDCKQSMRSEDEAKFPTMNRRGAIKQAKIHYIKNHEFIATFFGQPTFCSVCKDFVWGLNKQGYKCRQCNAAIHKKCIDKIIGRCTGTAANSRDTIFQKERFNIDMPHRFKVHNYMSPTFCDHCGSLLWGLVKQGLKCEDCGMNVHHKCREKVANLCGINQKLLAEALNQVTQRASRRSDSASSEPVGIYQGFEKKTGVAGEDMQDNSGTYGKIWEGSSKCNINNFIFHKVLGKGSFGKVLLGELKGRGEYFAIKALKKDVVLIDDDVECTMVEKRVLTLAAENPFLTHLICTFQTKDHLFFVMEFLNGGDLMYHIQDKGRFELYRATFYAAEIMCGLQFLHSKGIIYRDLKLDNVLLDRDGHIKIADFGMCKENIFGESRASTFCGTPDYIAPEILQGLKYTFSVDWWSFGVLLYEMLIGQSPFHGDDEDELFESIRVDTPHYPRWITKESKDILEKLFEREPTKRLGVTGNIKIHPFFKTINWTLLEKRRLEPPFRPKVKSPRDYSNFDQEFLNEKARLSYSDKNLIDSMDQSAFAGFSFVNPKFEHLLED

CCCCCCCCC(O)C/C=C/CCC(=O)N(C)C/C(=C\Cl)C/C(=C\C(=O)N1CC(OC)=CC1=O)OC (stereo not drawn)
IC50 (L1210 [1]): 2.9 µM | LD50 [2]: 33.3 mg/kg

CCCCCCC[C@@H](C/C=C/CCC(=O)O)OC
inhibition at 12.5 µg/mL [3]: 65% | GI50 (MDA-MB-231): 40 µM | GI50 (A549): 40 µM | GI50 (HT-29): 40 µM

CCCCCCC[C@@H](C/C=C/CCC(=O)N(C)C/C(=C\Cl)C/C(=C\C(=O)N1CC=CC1=O)OC)OC
inhibition at 12.5 µg/mL [3]: 10% | GI50 (MDA-MB-231): 40 µM | GI50 (A549): 40 µM | GI50 (HT-29): 40 µM

CC[C@@H](C)[C@H]1C(=O)N2CCC[C@H]2C(=O)O[C@H](C(C)(C)C)C[C@@H](C)C[C@H](O)[C@@H](C)C2=N[C@@H](/C=C(\C)C(=O)N[C@@H](Cc3ccc(OC)cc3)C(=O)N(C)[C@@H](C)C(=O)N1C)CS2
IC50 (HeLa): 0.19 µM

C=C(CCNC(=O)CC/C=C/C[C@H](CCCCCCCC)OC)[C@@]12O[C@H]1[C@H](O[C@H]1OC[C@H](OC)[C@@H](O)[C@@H]1OC)C=C(C)C2=O
IC50 (NCI-H460): 4 µM | IC50 (N2a): 4 µM | inhibition (Homo sapiens): 28%

CO[C@@H](CC[C@H](C)C1O[C@@]2(C=C[C@@H]1C)[C@H](C(=O)O[C@@H]1CC(=O)O[C@@H]1C)C(=O)[C@H](C)CC2(C)C)c1cccc(O)c1 (stereo partly drawn)
inhibition at 10 µg/mL (Nitzschia amabilis): 30%

CO[C@@H](CC[C@H](C)[C@H]1O[C@@]23C[C@H](OC(=O)C[C@@H]([C@@H](C)O)OC(=O)C[C@](OC)(O2)[C@H](C)CC3(C)C)[C@@H]1C)c1cc(O)ccc1Br
inhibition at 10 µg/mL (Nitzschia amabilis): 30%

CO[C@@H](CC[C@H](C)[C@H]1O[C@@]23C[C@H](OC(=O)C[C@H]([C@@H](C)O)OC(=O)/C=C(\O2)[C@]2(CO2)CC3(C)C)[C@@H]1C)c1cc(O)ccc1Br
inhibition (INH) (L1210 [4]): 10% and 25% | inhibition at 10 µg/mL (Nitzschia amabilis): 30%

CCCCCCCCCCCC/C=C/C[C@@H](O)[C@H](CO[C@@H]1O[C@H](CO)[C@@H](O)[C@H](O)[C@H]1O)NC(=O)CCCCCCCCCCCCCCCCCCCCCCCCC
IC50 (MCF7): 18.2 µg/mL (≈ 21.7 µM)

CO[C@@H](CC[C@H](C)[C@H]1OC2=C(/C(=C/C(=O)O[C@@H]3CC(=O)O[C@@H]3C)[C@H](C)CC2(C)C)[C@H](OC)[C@@H]1C)c1cc(O)ccc1Br
inhibition at 10 µg/mL (Nitzschia amabilis): 30%

CC[C@@H](C)[C@H]1C(=O)N2CCC[C@H]2C(=O)O[C@H](C(C)(C)C)C[C@@H](C)C[C@H](O)[C@H](C)C2=N[C@@H](/C=C(\C)C(=O)N[C@@H](Cc3ccc(OCCCCCCCn4cc(-c5ccccc5)nn4)cc3)C(=O)N(C)[C@@H](C)C(=O)N1C)CS2
IC50 (HeLa): 0.05 µM

COC(=O)C(CCC#CC=C(Cl)Cl)C(CCCC#CCC(Cl)Cl)NC=O (stereo not drawn)
LC50 [5]: 1.7 µg/mL (≈ 3.85 µM)

CCCCCCC[C@@H](C/C=C/CCC(=O)N(C)C/C(=C/Cl)C/C(=C\C(=O)N1CC(OC)=CC1=O)OC)OC
inhibition at 12.5 µg/mL [3]: 10% | GI50 (MDA-MB-231): 40 µM | GI50 (A549): 40 µM | GI50 (HT-29): 40 µM

CO[C@@H](CC[C@H](C)[C@H]1O[C@]23C[C@H](OC(=O)C[C@H]([C@@H](C)O)OC(=O)C(O)C(=C(C)CC2(C)C)O3)[C@@H]1C)c1cc(O)ccc1Br (stereo partly drawn)
inhibition at 10 µg/mL (L1210 [4]): 10% | inhibition (INH) (L1210 [4]): 20% | inhibition at 10 µg/mL (Nitzschia amabilis): 30%

CO[C@@H](CC[C@H](C)[C@H]1O[C@@]23C[C@H](OC(=O)C[C@H]([C@@H](C)O)OC(=O)/C=C(\O2)[C@@](C)(O)CC3(C)C)[C@@H]1C)c1cccc(O)c1
inhibition at 10 µg/mL (Nitzschia amabilis): 30%

CCCCCCCC[C@@H](C/C=C/CCC(=O)N(C)C/C(=C\Cl)C/C(=C\C(=O)N1CC(OC)=CC1=O)OC)OC
IC50 (L1210 [1]): 2.9 µM

CO[C@@H](CC[C@H](C)[C@H]1O[C@]23C[C@H](OC(=O)C[C@@H]([C@@H](C)O)OC(=O)CC(=C(C)CC2(C)C)O3)[C@@H]1C)c1cccc(O)c1
inhibition at 10 µg/mL (Nitzschia amabilis): 30%

C=C[C@@](C)(CCC=C(C)C)c1ccc2c3c1NC(=O)[C@@]3(O)C[C@@H](CO)NC(=O)[C@@H](C(C)C)N2C
Ki [6]: 1.4 µM | IC50 (L1210 [1]): 98 µM | LD33 [2]: 89 mg/kg

COC(=O)C(CCCCCC(Cl)Cl)C(CCCC#CC=C(Cl)Cl)NC=O (stereo not drawn)
LC50 [5]: 1.7 µg/mL (≈ 3.82 µM)

CO[C@@H](CC[C@H](C)[C@H]1O[C@@]23C[C@H](OC(=O)C[C@H]([C@@H](C)O)OC(=O)/C=C(\O2)[C@@](C)(O)CC3(C)C)[C@@H]1C)c1cc(O)ccc1Br
inhibition at 10 µg/mL (L1210 [4]): 10% | inhibition (INH) (L1210 [4]): 20% | inhibition at 10 µg/mL (Nitzschia amabilis): 30%

CC[C@H](C)[C@H]1C(=O)N(C)[C@@H](C)C(=O)O[C@H](C(C)(C)C)C[C@@H](C)C[C@H](O)[C@H](C)C2=NC(/C=C(\C)C(=O)N[C@@H](Cc3ccc(OC)cc3)C(=O)N(C)[C@@H](C)C(=O)N1C)CS2 (stereo partly drawn)
IC50 (NCI-H460): 0.002 µM

COC(=O)C(CCCCCC(Cl)Cl)C(CCCC#C/C=C/Cl)NC=O (stereo not drawn)
LC50 [5]: 1.7 µg/mL (≈ 4.14 µM)

CCCCCCCC[C@@H](C/C=C/CCC(=O)N(C)C/C(=C\Cl)C/C(=C\C(=O)N1C[C@H](O)CC1=O)OC)OC
IC50 (L1210 [1]): 2.9 µM

CC[C@@H](C)[C@H]1C(=O)N2CCC[C@H]2C(=O)O[C@H](C(C)(C)C)C[C@@H](C)C[C@H](O)[C@H](C)C2=N[C@@H](/C=C(\C)C(=O)N[C@@H](Cc3ccc(OCCCCCCCN=[N+]=[N-])cc3)C(=O)N(C)[C@@H](C)C(=O)N1C)CS2
IC50 (HeLa): 0.08 µM
